# Reference: patent US7041785B1, “B1-bradykinin receptor antagonists and use thereof” (Université de Sherbrooke, priority 1996, dated 2006)
# Non-standard residues stand in square brackets, D forms with d. Residues, ends and D or L forms follow the SMILES beside them. Tyr(3,5-I2) = N[C@@H](Cc1cc(I)c(O)c(I)c1)C(=O)O; d2Nal = N[C@H](Cc1ccc2ccccc2c1)C(=O)O; Ahx = NCCCCCC(=O)O; Sar = CNCC(=O)O
# Biological target: T1, angiotensin-converting enzyme (ACE) from rabbit lungs (Oryctolagus cuniculus, UniProt P12822)
# T1 sequence (P12822 34-1310): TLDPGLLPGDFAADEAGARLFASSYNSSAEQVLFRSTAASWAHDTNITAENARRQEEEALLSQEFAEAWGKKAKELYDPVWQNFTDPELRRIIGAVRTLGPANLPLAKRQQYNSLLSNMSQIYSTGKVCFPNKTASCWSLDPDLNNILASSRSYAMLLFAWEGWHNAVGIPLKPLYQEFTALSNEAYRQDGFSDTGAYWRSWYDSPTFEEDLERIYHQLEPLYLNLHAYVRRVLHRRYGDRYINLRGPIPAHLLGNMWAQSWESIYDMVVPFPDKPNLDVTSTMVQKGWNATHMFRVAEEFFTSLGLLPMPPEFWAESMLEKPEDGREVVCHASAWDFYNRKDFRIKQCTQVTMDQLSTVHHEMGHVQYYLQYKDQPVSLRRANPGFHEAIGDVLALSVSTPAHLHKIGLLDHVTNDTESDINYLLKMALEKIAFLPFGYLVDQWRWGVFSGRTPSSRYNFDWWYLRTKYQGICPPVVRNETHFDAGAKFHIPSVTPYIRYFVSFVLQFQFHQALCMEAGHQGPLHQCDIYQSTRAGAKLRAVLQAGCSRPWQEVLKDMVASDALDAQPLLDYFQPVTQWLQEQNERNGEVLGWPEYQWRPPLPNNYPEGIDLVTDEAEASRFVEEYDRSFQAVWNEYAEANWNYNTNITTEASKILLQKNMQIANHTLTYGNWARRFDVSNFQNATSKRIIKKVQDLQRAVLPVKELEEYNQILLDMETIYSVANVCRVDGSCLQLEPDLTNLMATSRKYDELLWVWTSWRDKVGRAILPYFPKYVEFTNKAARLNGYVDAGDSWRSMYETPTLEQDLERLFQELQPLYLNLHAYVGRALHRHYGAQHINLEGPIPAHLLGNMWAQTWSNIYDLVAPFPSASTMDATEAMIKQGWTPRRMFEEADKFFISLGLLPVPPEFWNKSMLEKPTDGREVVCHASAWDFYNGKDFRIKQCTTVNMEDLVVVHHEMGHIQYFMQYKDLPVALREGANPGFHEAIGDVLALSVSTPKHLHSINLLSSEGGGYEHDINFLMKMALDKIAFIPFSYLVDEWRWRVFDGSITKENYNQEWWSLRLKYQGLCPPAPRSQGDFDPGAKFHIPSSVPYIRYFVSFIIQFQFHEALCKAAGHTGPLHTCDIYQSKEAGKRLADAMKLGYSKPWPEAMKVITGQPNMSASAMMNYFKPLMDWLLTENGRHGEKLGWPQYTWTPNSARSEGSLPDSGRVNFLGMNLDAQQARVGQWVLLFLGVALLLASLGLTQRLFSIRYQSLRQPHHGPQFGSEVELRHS
# Assay: Metabolic degradation by purified angiotensin-converting enzyme, HPLC analysis
# Format: in vitro ADME
# Set-up: purified angiotensin-converting enzyme (ACE) from rabbit lungs; purchased Sigma, St-Louis, Mo; host or cells: purified from rabbit lungs
# Experimental: The metabolic stability of various kinin-related peptides was evaluated by incubating the peptide in the presence of purified angiotensin-converting enzyme (ACE) from rabbit lungs (purchased from Sigma, St-Louis, Mo.) dissolved in phosphate buffered saline (PBS) (50 mmol/L, pH 7.5 containing 300 mmoL/L NaCl); the final concentration of enzyme was 45 μg/mL. The experimental protocol for the measurement of ACE activity has been described elsewhere^15,16. Briefly, 200 μmol/L of peptides (40 μL) were placed in a PBS buffer and incubated for 5 min at 37EC before adding 8.5 μL of ACE (total volume of the reaction medium; 190 μL). Samples were withdrawn at 30 min intervals, immersed in boiling water for 5 min, then cooled on ice and centrifuged (5 min) before proceeding to analysis of peptides by high pressure liquid chromatography (HPLC). Results of ACE metabolism are expressed in percent of kinin degradation following the incubation (30 min) of kinin substrates with the enzyme.
# Pure peptides and metabolic products were analysed by reverse-phas HPLC on a C18 μBondapak column (4.6 mm×25 cm) (Waters) of 10-μm particle size. The peptides and their fragments were eluted at the rate of 2.0 mL/min. with a linear gradient ranging from 5 to 65% of acetonitrile/TFA 0.05%/water over 20 min. at room temperature. The elution positions of these peptides were determined by following the absorbance at 214 nm. For each assay, 50 μL of the reaction medium (treated or not with ACE) were extracted and injected into the column. Concentrations of the peaks products, different from the peaks of the peptide substrate, were estimated using a computer software program (Baseline 810; Waters) that controlled also all the chromatography operations. Isolated metabolites and substrates were collected and identified by Electrospray mass spectrometry (positive mode).
compound,measurement,value
"CC[C@H](C)[C@H](NC(=O)[C@@H](Cc1ccc2ccccc2c1)NC(=O)[C@H](CO)NC(=O)[C@H](Cc1ccccc1)NC(=O)CNC(=O)[C@@H]1CCCN1C(=O)[C@@H]1CCCN1C(=O)[C@H](CCCNC(=N)N)NC(=O)[C@H](CCCCN)NC(=O)CCCCCNC(=O)[C@H](Cc1cc(I)c(O)c(I)c1)NC(=O)CNC)C(=O)O [Compound 30, SarTyr(3,5-I)εAhxLys(D-βNal^7, Ile^8)desArg^9BK] (H-[Sar][Tyr(3,5-I2)][Ahx]KRPPGFS[d2Nal]I-OH; N-terminus and C-terminus assumed)","Less susceptible to ACE proteolytic degradation, relative to Lys(Leu8)desArgBK",2-5 times
